From patent US11116811B2, “Pharmaceutical composition comprising refined indigo naturalis extracts and the use thereof” (Galderma S.A., priority 2015, dated 2021)
Converted amounts (≈) assume the structure as drawn.

Experiments:
NFκB = assay: TNFα-induced NFκB activation reporter assay in 293/NFκB-Luc cells; assay type: cell-based; details: Homo sapiens; TNFα-stimulated 293/NFκB-Luc, luciferase; replicate values separated by /; read-out: pro-inflammatory cytokine production IC50 (NFKB)
Protocol: Cell lysates were prepared by removing media and adding lysis buffer. 5× volume Luciferase Assay Reagent was added to each well prior to read plate. Luminescence was recorded using Perkin-Elmer Victor III plate reader (Perkin-ElmerLife Sciences, Boston, Mass., USA).
All IC50 values were determined by using Xlfit™ software (version 2.0) from ID Business Solutions (Guildford, UK). Background was defined in culture with cells treated with DMSO only and was subtracted for IC50 calculations.

[1] = test system: IL-22 induced psoriasis-like mouse models; assay: IL-22 induced psoriasis-like mouse model, ear thickness; assay type: in vivo, BABL/c mice; set-up: AUC of ear thickness: unit not given here
Protocol: • BABL/c mice, male, body weight 19-22 g, purchased from Shanghai SLC AnimalCenter. • Room temperature: 24±1° C. • Room relative humidity: 40-70% • Light cycle: Fluorescent light for 12-hour light (8:00-20:00) 12-hour dark • Animal hosting: 4 mice/cage • Food: Free access to food (irradiated, Shanghai SLAC Laboratory Animal Co. Ltd., China) • Water: Free access to tap water from local supply (first filtered by Molanimal ultrapure water machine from the municipal water supply) Instruments • MJ Research PTC-200 Peltier Thermal cycler (Alpha Unit™ Block Assembly for PTC DNA Engine™ systems) • Applied Biosystems 7500 realtime PCR system • Digimatic micrometer caliper: Mitutoyo, Japan. Accuracy: 0.001 mm Reagents • Recombinant mouse IL-22 (rmIL-22), Novoprotein (sinobio), Cat. C047, Lot. 0375351 • High capacity cDNA Reverse Transcription kit, Applied Biosystems, Part No.: 4368813, Lot: 0909069 • Thermo Scientific ABsolute SYBR Green Rox Mix, Thermo Scientific, Cat: AB-1163/A, Lot: 0911/16 Positive Control • Protopic® (tacrolimus, FK506), 0.1% ointment, Astellas Toyama Co., Ltd. Toyama Plant, H20100079, Lot: 028680. Dosing Regimen
Different concentrations of test samples, vehicle, or 0.1% of FK506 ointment, were topically administrated at 1% one hour after the induction of model and then given daily from day 1 to day 11, twice a day. The first day of administration of a test article was regarded as day 0.
Topical application, b.i.d.
Intradermal injection of 20 μL PBS, either alone or containing 100 or 500 ng recombinant mouse IL-22 (eBiosience), was administered into the ears of anesthetized mice using a 30-gauge needle every other day for eleven days. Ear thicknesses were measured before injection on day 0 and thereafter on days without injections. Ear measurements were taken at the center of the ears using a digimatic micrometer caliper (Mitutoyo).
Twenty-four hours after the last IL-22 treatment, mice were sacrificed, and ears were collected for further analysis.
Results of ear thickness data were expressed as mean±S. E. M. AUC of ear swelling was calculated by the ear thickness data from day 0 to day 11, and analyzed by repeated-measured ANOVA methods with IMP® software. Cytokine protein and gene expression data were evaluated with a one-way ANOVA and followed by student's t-test for post-hoc analysis. (Significance level was set at p<0.05).

[2] = study 1, IL-22 100 ng in 20 μL i.d.
[3] = study 1, IL-22 500 ng in 20 μL i.d.

## C=C1CC[C@@H]2[C@](C)(CO)[C@H](O)CC[C@@]2(C)[C@@H]1C/C=C1/C(=O)OC[C@H]1O [LGT, Andrographolide]
NFκB
  IC50: 0.45 ng/mL (≈ 1.28 nM)

## C=CC[C@@H]1/C=C(\C)C[C@H](C)C[C@H](OC)[C@H]2O[C@@](O)(C(=O)C(=O)N3CCCC[C@H]3C(=O)O[C@H](/C(C)=C/[C@@H]3CC[C@@H](O)[C@H](OC)C3)[C@H](C)[C@@H](O)CC1=O)[C@H](C)C[C@@H]2OC [FK506, tacrolimus]
[1]; study 2, 0.1% topical b.i.d.
  AUC of ear thickness: 403
  ear thickness on day 11: 256.8 ± 3.5 μm
  inhibition of AUC of ear thickness: 79.2%
[1]; study 3, 0.1% topical b.i.d.
  AUC of ear thickness: 369
  ear thickness on day 11: 278.8 ± 5.0 μm
  inhibition of AUC of ear thickness: 81.3%
[1]; study 4, 0.1% topical b.i.d.
  AUC of ear thickness: 446
  ear thickness on day 11: 260.4 ± 4.5 μm
  inhibition of AUC of ear thickness: 80.4%
[1]; study 5, 0.1% topical b.i.d.
  AUC of ear thickness: 454
  ear thickness on day 11: 263.4 ± 6.3 μm
  inhibition of AUC of ear thickness: 70.4%

B1: IL-22: Recombinant mouse IL-22, injected intradermally into ears to induce the psoriasis-like model (protein, UniProt Q9JJY9 34-179, looked up)
Interleukin-22: LPVNTRCKLEVSNFQQPYIVNRTFMLAKEASLADNNTDVRLIGEKLFRGVSAKDQCYLMKQVLNFTLEDVLLPQSDRFQPYMQEVVPFLTKLSNQLSSCHISGDDQNIQKNVRRLKETVKKLGESGEIKAIGELDLLFMSLRNACV
[1]; [2]
  AUC of ear thickness: 590
  ear thickness on day 11: 248.3 ± 1.9, μm
[1]; study 1, IL-22 100 ng in 20 μL i.d., d15
  ear thickness (d15): 255.3 ± 15.1 μm
[1]; [3]
  AUC of ear thickness: 1055
  ear thickness on day 11: 311.3 ± 18.0, μm
[1]; study 1, IL-22 500 ng in 20 μL i.d., second value (day not given)
  ear thickness, second value: 296.3 ± 5.0 μm
